Laboratory results as given in PubChem BioAssay AID1919007 (Molecular Pharmacology Branch, DTP, NCI, 2023).

Test system: A498 complex spheroids with HUVEC/MSC, growth
Test: Anticancer human tumor A498 cell line growth inhibition [AhR];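 also: seven day exposure starting three days after spheroid seeding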;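 as to viability, T/C: luminescence signal used as a surrogate for viable cells; luminescence viability scaled so 100% equals DMSO vehicle wells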
Conditions: for IC50: curve of first compound; for viability, T/C: stronger effect = lower value
Method in brief: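 Agents were dosed in half-log steps down from roughly clinical Cmax, or from 10 microM where Cmax was unknown, alone and with AhR antagonists. Read-out: percent test/control growth of tumor spheroids containing HUVEC and MSC stromal cells.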

[1] = second compound 0.1 µM, first compound 0.0316 µM
[2] = second compound 0.1 µM, first compound 0.1 µM
[3] = second compound 0.1 µM, first compound 0.316 µM
[4] = second compound 0.1 µM, first compound 1 µM
[5] = second compound 0.1 µM, first compound 3.16 µM
[6] = second compound 0.1 µM, first compound 10 µM
[7] = second compound 0.316 µM, first compound 0.0316 µM
[8] = second compound 0.316 µM, first compound 0.1 µM
[9] = second compound 0.316 µM, first compound 0.316 µM
[10] = second compound 0.316 µM, first compound 1 µM
[11] = second compound 0.316 µM, first compound 3.16 µM
[12] = second compound 0.316 µM, first compound 10 µM
[13] = second compound 1 µM, first compound 0.0316 µM
[14] = second compound 1 µM, first compound 0.1 µM
[15] = second compound 1 µM, first compound 0.316 µM
[16] = second compound 1 µM, first compound 1 µM
[17] = second compound 1 µM, first compound 3.16 µM
[18] = second compound 1 µM, first compound 10 µM
[19] = second compound 3.16 µM, first compound 0.0316 µM
[20] = second compound 3.16 µM, first compound 0.1 µM
[21] = second compound 3.16 µM, first compound 0.316 µM
[22] = second compound 3.16 µM, first compound 1 µM
[23] = second compound 3.16 µM, first compound 3.16 µM
[24] = second compound 3.16 µM, first compound 10 µM
[25] = second compound 10 µM, first compound 0.0316 µM
[26] = second compound 10 µM, first compound 0.1 µM
[27] = second compound 10 µM, first compound 0.316 µM
[28] = second compound 10 µM, first compound 1 µM
[29] = second compound 10 µM, first compound 3.16 µM
[30] = second compound 10 µM, first compound 10 µM
[31] = second compound 0.1 µM, first compound 0.00316 µM
[32] = second compound 0.1 µM, first compound 0.01 µM
[33] = second compound 0.316 µM, first compound 0.00316 µM
[34] = second compound 0.316 µM, first compound 0.01 µM
[35] = second compound 1 µM, first compound 0.00316 µM
[36] = second compound 1 µM, first compound 0.01 µM
[37] = second compound 3.16 µM, first compound 0.00316 µM
[38] = second compound 3.16 µM, first compound 0.01 µM
[39] = second compound 10 µM, first compound 0.00316 µM
[40] = second compound 10 µM, first compound 0.01 µM

CC(C)c1c(-c2ccccc2)nc2c(C#N)c[nH]n2c1=O + CC(CO)NC(=O)c1cc(-c2ccc(Cl)cc2)nn(-c2cnn(C)c2)c1=O was tested, and the IC50 (second compound 0.1 µM) was > 10000 nM, the IC50 (second compound 0.316 µM) was > 10000 nM and the IC50 (second compound 1 µM) was > 10000 nM. For the same compound, the IC50 (second compound 3.16 µM) was > 10000 nM, the IC50 (second compound 10 µM) was > 10000 nM and the viability, T/C [1] was 94.6%. The viability, T/C [2] was 93.3%, the viability, T/C [3] was 93.3% and the viability, T/C [4] was 96.4%. For the same compound, the viability, T/C [5] was 101%, the viability, T/C [6] was 103% and the viability, T/C [7] was 91.9%. It also gave a viability, T/C [8] of 90.5%, a viability, T/C [9] of 94.6% and a viability, T/C [10] of 83.1%. For the same compound, the viability, T/C [11] was 87.3%, the viability, T/C [12] was 88.5% and the viability, T/C [13] was 85.8%. The viability, T/C [14] was 92.6%, the viability, T/C [15] was 90.7% and the viability, T/C [16] was 76.5%. For the same compound, the viability, T/C [17] was 87.1%, the viability, T/C [18] was 90.7% and the viability, T/C [19] was 81.5%. The viability, T/C [20] was 86.1%, the viability, T/C [21] was 96.2% and the viability, T/C [22] was 75.3%. For the same compound, the viability, T/C [23] was 75.9%, the viability, T/C [24] was 81.5% and the viability, T/C [25] was 61.8%. The viability, T/C [26] was 63.3%, the viability, T/C [27] was 70.5% and the viability, T/C [28] was 58.9%. It also gave a viability, T/C [29] of 64% and a viability, T/C [30] of 72.2%.
Compound CC1COCCN1c1cc(-c2ccnn2C)c2ccnc(-c3ccn[nH]3)c2n1 (stereo not given) + CC(CO)NC(=O)c1cc(-c2ccc(Cl)cc2)nn(-c2cnn(C)c2)c1=O has an IC50 (second compound 0.1 µM) of 77.7 nM, an IC50 (second compound 0.316 µM) of 78.8 nM and an IC50 (second compound 1 µM) of 72.7 nM. It also gave an IC50 (second compound 3.16 µM) of 62 nM, an IC50 (second compound 10 µM) of 41.7 nM and a viability, T/C [31] of 96.4%. It also gave a viability, T/C [32] of 103%, a viability, T/C [1] of 82.3% and a viability, T/C [2] of 40.5%. The viability, T/C [3] was 20.1%, the viability, T/C [4] was 13% and the viability, T/C [33] was 90%. It also gave a viability, T/C [34] of 104%, a viability, T/C [7] of 76% and a viability, T/C [8] of 44.1%. It also gave a viability, T/C [9] of 17.1%, a viability, T/C [10] of 14.3% and a viability, T/C [35] of 93.6%. The viability, T/C [36] was 92.6%, the viability, T/C [13] was 78.6% and the viability, T/C [14] was 39.1%. For the same compound, the viability, T/C [15] was 18.4%, the viability, T/C [16] was 15.7% and the viability, T/C [37] was 88.6%. For the same compound, the viability, T/C [38] was 84.9%, the viability, T/C [19] was 70.7% and the viability, T/C [20] was 34.9%. For the same compound, the viability, T/C [21] was 21.4%, the viability, T/C [22] was 15.4% and the viability, T/C [39] was 65.7%. The viability, T/C [40] was 68.5%, the viability, T/C [25] was 55.1% and the viability, T/C [26] was 31.6%. It also gave a viability, T/C [27] of 20.2% and a viability, T/C [28] of 14%.
For COc1ccc([C@@H](O)c2cc(-c3ncnc4cc(N5CCOCC5)ccc34)c(F)cc2Cl)nn1 + CC(CO)NC(=O)c1cc(-c2ccc(Cl)cc2)nn(-c2cnn(C)c2)c1=O, the IC50 (second compound 0.1 µM) was 346 nM, the IC50 (second compound 0.316 µM) was 307 nM and the IC50 (second compound 1 µM) was 307 nM. The IC50 (second compound 3.16 µM) was 230 nM, the IC50 (second compound 10 µM) was 74.4 nM and the viability, T/C [1] was 83.6%. It also gave a viability, T/C [2] of 79.5%, a viability, T/C [3] of 49.9% and a viability, T/C [4] of 26.2%. For the same compound, the viability, T/C [5] was 15.1%, the viability, T/C [6] was 9.67% and the viability, T/C [7] was 78%. It also gave a viability, T/C [8] of 73%, a viability, T/C [9] of 48.4% and a viability, T/C [10] of 23.9%. The viability, T/C [11] was 13.6%, the viability, T/C [12] was 8.99% and the viability, T/C [13] was 77.7%. For the same compound, the viability, T/C [14] was 73.2%, the viability, T/C [15] was 48.7% and the viability, T/C [16] was 22.8%. The viability, T/C [17] was 14.3%, the viability, T/C [18] was 9.42% and the viability, T/C [19] was 70.9%. For the same compound, the viability, T/C [20] was 67.9%, the viability, T/C [21] was 42.7% and the viability, T/C [22] was 20.8%. The viability, T/C [23] was 12.9%, the viability, T/C [24] was 10% and the viability, T/C [25] was 55.3%. It also gave a viability, T/C [26] of 49.3%, a viability, T/C [27] of 33.1% and a viability, T/C [28] of 21.1%. It also gave a viability, T/C [29] of 12.3% and a viability, T/C [30] of 7.61%.
For COc1cccc2c1C(=O)c1c(O)c3c(c(O)c1C2=O)CC(O)(C(=O)CO)CC3OC1CC(N)C(O)C(C)O1 (stereo not given) + Cc1ccccc1N=Nc1ccc(NC(=O)c2ccnn2C)c(C)c1, the IC50 (second compound 0.1 µM) was 290 nM, the IC50 (second compound 0.316 µM) was 397 nM and the IC50 (second compound 1 µM) was 369 nM. The IC50 (second compound 3.16 µM) was 397 nM, the IC50 (second compound 10 µM) was 400 nM and the viability, T/C [1] was 61.7%. It also gave a viability, T/C [2] of 52.4%, a viability, T/C [3] of 49.6% and a viability, T/C [4] of 23.8%. For the same compound, the viability, T/C [5] was 1.17%, the viability, T/C [6] was 0.89% and the viability, T/C [7] was 65.6%. For the same compound, the viability, T/C [8] was 61.6%, the viability, T/C [9] was 55.7% and the viability, T/C [10] was 25.5%. For the same compound, the viability, T/C [11] was 1.09%, the viability, T/C [12] was 1.35% and the viability, T/C [13] was 58.6%. For the same compound, the viability, T/C [14] was 60.4%, the viability, T/C [15] was 52.9% and the viability, T/C [16] was 25.7%. The viability, T/C [17] was 1.54%, the viability, T/C [18] was 0.92% and the viability, T/C [19] was 59.9%. It also gave a viability, T/C [20] of 62.6%, a viability, T/C [21] of 52.9% and a viability, T/C [22] of 30.6%. The viability, T/C [23] was 2.05%, the viability, T/C [24] was 0.61% and the viability, T/C [25] was 61.7%. The viability, T/C [26] was 57.5%, the viability, T/C [27] was 55.4% and the viability, T/C [28] was 27%. The viability, T/C [29] was 1.19% and the viability, T/C [30] was 1.56%.
Nc1ncn(C2CC(O)C(CO)O2)c(=O)n1 (stereo not given) + Cc1ccccc1N=Nc1ccc(NC(=O)c2ccnn2C)c(C)c1 was tested, and the IC50 (second compound 0.1 µM) was > 1000 nM, the IC50 (second compound 0.316 µM) was > 1000 nM and the IC50 (second compound 1 µM) was > 1000 nM. The IC50 (second compound 3.16 µM) was > 1000 nM, the IC50 (second compound 10 µM) was > 1000 nM and the viability, T/C [31] was 88.8%. The viability, T/C [32] was 91.7%, the viability, T/C [1] was 88.8% and the viability, T/C [2] was 93.6%. For the same compound, the viability, T/C [3] was 86.2%, the viability, T/C [4] was 77.1% and the viability, T/C [33] was 97%. It also gave a viability, T/C [34] of 97.5%, a viability, T/C [7] of 97.4% and a viability, T/C [8] of 84%. It also gave a viability, T/C [9] of 78.5%, a viability, T/C [10] of 76.1% and a viability, T/C [35] of 81.2%. For the same compound, the viability, T/C [36] was 87.3%, the viability, T/C [13] was 84.4% and the viability, T/C [14] was 74.9%. It also gave a viability, T/C [15] of 74.6%, a viability, T/C [16] of 70.6% and a viability, T/C [37] of 84.9%. For the same compound, the viability, T/C [38] was 87.2%, the viability, T/C [19] was 85.8% and the viability, T/C [20] was 73.9%. The viability, T/C [21] was 80%, the viability, T/C [22] was 64% and the viability, T/C [39] was 90.7%. It also gave a viability, T/C [40] of 86.7%, a viability, T/C [25] of 76.9% and a viability, T/C [26] of 85.3%. It also gave a viability, T/C [27] of 74.8% and a viability, T/C [28] of 68%.
